# Measurements published in patent US20230219886A1, “NOVEL SELENO-NSAID ANALOGS AND USES THEREOF” (THE PENN STATE RESEARCH FOUNDATION, priority 2020, published 2023).
# Where two headings read alike, the source gives them in different places.
# Columns and labels:
# [1] = system: PANC-1 (pancreatic carcinoma); test: MTT cell viability assay, Panc-1; settings: for cell viability: 48 h
# In short: (§1)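 Cells seeded 9000/well, grown 12 h, then exposed to nine concentrations (0.01-50 μM) for 24, 48 or 72 h; screening used 5, 25 and 50 μM for 48 h.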
# [2] = system: DU-145 (prostate carcinoma); test: MTT cell viability assay, DU-145; settings: for cell viability: 48 h
# In short: as §1
# CACO-2 CRC cells = test: cells
# In short: (§2)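 Cells are seeded at 9000 cells/well, grown for 12 h, then exposed to DMSO or nine concentrations of test compound between 0.01-50 μM for 24, 48 and 72 h. MTT is added 3 h before the end, formazan is dissolved in DMSO and absorbance read at 570 and 630 nm. IC50, GI50, TGI and LC50 are calculated from these readings.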
# RKO CRC cells = test: cells
# In short: as §2
# HCT-116 CRC cells = test: MTT cell viability assay, HCT-116; type: cell-based, human; settings: read-out: IC50
# In short: as §2
# [3] = system: human CRC cells (HT-29, HCT-116, RKO and CACO-2); test: MTT assay, panel of four CRC cells; type: cell-based; settings: 4 CRC cells
# Protocol: Cell Culture Conditions. […] Culture medium was replaced every three days.
# Evaluation of the antiproliferative activity of methylseleno-NSAIDs, MSA and NSAIDs alone or in combination. […] CRC cells were treated for 24, 48 and 72 h at different concentrations to stablish the dose-response curves.
# H1299 (lung carcinoma) = test: MTT cell viability assay, H1299; settings: for cell viability: 48 h
# In short: as §1
# HT-29 cells [4] = test: Caspase 3/7 assay; type: cell-based, human; settings: HT29, 5 μM
# Protocol: (§3) Apoptosis assay. Induction of apoptosis after the treatment with compounds 1a and 6a were analyzed using Annexin V & Dead cell assay kit and Caspase 3/7 Assay kit (EMD Millipore, Billercia, Mass.) using Muse cell analyzer following manufacturer's protocol. Briefly, the HT-29 cells were plated in triplicates in a six-well plate at densities of 1×10^5 cells/well. Following day, the cells were treated with the compounds 1a and 6a and incubated for 48 h. At the end of the treatment duration, the cells were prepared following manufacturer's guidelines and the data were acquired using Muse 1.4 software.
# (§4) Compounds 1a and 6a induced apoptosis in CRC cells. We further investigated whether the inhibition of cell cycle leads to apoptosis. In pursuit of this, HT29 cells were treated with 5 μM of the compounds 1a and 6a for indicated time intervals. Apoptosis was measured by using Annexin V & Dead cell assay kit and Caspase 3/7 Assay kit using Muse cell analyzer following manufacturer's protocol. The live cell population resided in the lower left quadrant and they start shifting towards the lower right quadrant (early apoptotic) or to upper right quadrant (late apoptotic/dead) after treatments. […] A similar trend was also observed after 6a treatment where the live cell population were decreased from <75% to <65% after 12 h and 24 h treatment, respectively.
# p21 = test: Western blot protein expression, p21; type: cell-based, human; settings: HT-29, IC50 dose, 12 h and 24 h
# Protocol: (§5) Protein Expression Analysis. Western Blot was performed to assess the expression level of different proteins before and after treatment. In brief, HT-29 cells were treated with the compound for different time intervals and the whole-cell lysates were made by lysing cells using RIPA buffer (Thermo Scientific, USA). Protease (Roche, USA) and phosphatase inhibitor cocktails (Sigma-Aldrich, USA) were used to prevent the degradation of the proteins present in the lysate. The resulting lysates were incubated on ice for 30 min and spun at 10,000 rpm for 15 min to pellet down cell debris. The total protein concentration was determined using Bradford assay (Thermo Scientific, USA). Equal amounts of cell lysates were resolved using NuPAGE gel 4-12% (Life Technologies, Carlsbad, Calif.). The resolved proteins were electro-transferred to a PVDF membrane and different antibodies were used to probe the protein expression levels. Enhanced Chemiluminescent reagent (Life technologies, USA) was used to detect the protein of interest.
# (§6) To further explore the underlying mechanism of the cell cycle arrest, we studied the expression levels of the different proteins involved in the cell cycle regulation. […] At both time intervals of 12 h and 24 h, the expression levels of cell cycle regulatory proteins cyclin E1 and cyclin B1 were inhibited while p21 was induced (FIG. 7B).
# Cyclin E1 = test: Western blot protein expression, Cyclin E1; type: cell-based, human; settings: HT-29, IC50 dose, 12 h and 24 h
# Protocol: as §5, §6
# HT-29 cells [5] = test: Annexin V & Dead cell apoptosis assay; type: cell-based, human; settings: HT29, 5 μM, 12 h
# Protocol: as §3, §4
# Cyclin B1 = test: Western blot protein expression, Cyclin B1; type: cell-based, human; settings: HT-29, IC50 dose, 12 h and 24 h
# Protocol: as §5, §6
# HT-29 (CRC) = test: MTT cell viability assay, HT-29; settings: for cell viability: 48 h; for CC50: read-out: LC50
# In short: as §1
# [6] = Homo sapiens, PANC-1, 48 h, read-out: cell viability
# [7] = Homo sapiens, DU-145, 48 h, read-out: cell viability
# [8] = Homo sapiens, NCI-H1299, 48 h, read-out: cell viability
# [9] = Homo sapiens, HT-29, 48 h, read-out: cell viability
smiles,measurement,setting,value
"C[Se]C(=O)CC1=C(C)/C(=C/c2ccc([S+](C)[O-])cc2)c2ccc(F)cc21 (stereo not drawn) [Compound 6a, Se-methyl (Z)-2-(5-fluoro-2-methyl-1-(4-(methylsulfinyl)benzylidene)-1H-indenyl)ethaneselenoate]",cell viability,"[1]; Panc-1, 5 μM",49.4 ± 20.1%
same,cell viability,"[1]; Panc-1, 25 μM",29.0 ± 9.5%
same,cell viability,"[1]; Panc-1, 50 μM",21.3 ± 9.2%
same,cell viability,"[2]; DU145, 5 μM",60.1 ± 2.2%
same,cell viability,"[2]; DU145, 25 μM",44.9 ± 2.4%
same,cell viability,"[2]; DU145, 50 μM",52.5 ± 2.9%
same,IC50,"CACO-2 CRC cells; CACO-2, 24 h",3000 ± 500 nM
same,IC50,"CACO-2 CRC cells; CACO-2, 48 h",1300 ± 600 nM
same,IC50,"CACO-2 CRC cells; CACO-2, 72 h",700 ± 200 nM
same,IC50,"RKO CRC cells; RKO, 24 h",> 50000 nM
same,IC50,"RKO CRC cells; RKO, 48 h",17200 ± 2400 nM
same,IC50,"RKO CRC cells; RKO, 72 h",17300 ± 800 nM
same,IC50,"HCT-116 CRC cells; HCT-116, 24 h",7300 ± 2300 nM
same,IC50,"HCT-116 CRC cells; HCT-116, 48 h",3200 ± 700 nM
same,IC50,"HCT-116 CRC cells; HCT-116, 72 h",1800 ± 600 nM
same,anti-tumoral activity versus MSA and NSAIDs as single agents or combined,[3],higher anti-tumoral activity
same,cell viability,"H1299 (lung carcinoma); H1299, 5 μM",53.4 ± 20.2%
same,cell viability,"H1299 (lung carcinoma); H1299, 25 μM",41.9 ± 14.9%
same,cell viability,"H1299 (lung carcinoma); H1299, 50 μM",31.3 ± 6.4%
same,apoptotic cell population,HT-29 cells [4],time dependent increase
same,expression level of p21,p21,sharp increase
same,expression level of Cyclin E1,Cyclin E1,went down substantially
same,live cells,HT-29 cells [5],< 75%
same,expression level of Cyclin B1,Cyclin B1,went down substantially
same,increase on cytotoxic potency compared with parent NSAID scaffolds,HT-29 (CRC); HT-29,three-fold
same,cell viability,"HT-29 (CRC); HT-29, 5 μM",22.9 ± 2.9%
same,cell viability,"HT-29 (CRC); HT-29, 25 μM",11.9 ± 6.6%
same,cell viability,"HT-29 (CRC); HT-29, 50 μM",11.1 ± 6.2%
same,GI50,"HT-29 (CRC); HT-29, 24 h",1200 ± 1100 nM
same,IC50,"HT-29 (CRC); HT-29, 24 h",2400 ± 300 nM
same,TGI,"HT-29 (CRC); HT-29, 24 h",9900 ± 3900 nM
same,GI50,"HT-29 (CRC); HT-29, 48 h",1400 ± 700 nM
same,IC50,"HT-29 (CRC); HT-29, 48 h",2000 ± 700 nM
same,TGI,"HT-29 (CRC); HT-29, 48 h",3300 ± 300 nM
same,GI50,"HT-29 (CRC); HT-29, 72 h",500 ± 500 nM
same,IC50,"HT-29 (CRC); HT-29, 72 h",1400 ± 300 nM
same,TGI,"HT-29 (CRC); HT-29, 72 h",2400 ± 400 nM
same,CC50,"HT-29 (CRC); HT-29, 24 h",> 50000 nM
same,CC50,"HT-29 (CRC); HT-29, 48 h",10100 ± 5200 nM
same,CC50,"HT-29 (CRC); HT-29, 72 h",6300 ± 700 nM
"C[Se]C(=O)c1ccccc1OC(C)=O [Compound 1a, 2-((methylselanyl)carbonyl)phenyl acetate]",viability at 5 µM,[1]; [6],43.7 ± 12.1%
same,viability at 25 µM,[1]; [6],36.9 ± 6.3%
same,viability at 50 µM,[1]; [6],36.8 ± 6.8%
same,viability at 5 µM,[2]; [7],43.2 ± 1.8%
same,viability at 25 µM,[2]; [7],35.9 ± 7%
same,viability at 50 µM,[2]; [7],36.5 ± 6.7%
same,IC50,"CACO-2 CRC cells; Homo sapiens, Caco-2, 24 h",2600 ± 200 nM
same,IC50,"CACO-2 CRC cells; Homo sapiens, Caco-2, 48 h",900 ± 100 nM
same,IC50,"CACO-2 CRC cells; Homo sapiens, Caco-2, 72 h",800 ± 100 nM
same,IC50,"RKO CRC cells; Homo sapiens, 24 h",> 50000 nM
same,IC50,"RKO CRC cells; Homo sapiens, 48 h",> 50000 nM
same,IC50,"RKO CRC cells; Homo sapiens, 72 h",> 50000 nM
same,IC50,"HCT-116 CRC cells; Homo sapiens, HCT-116, 24 h",> 50000 nM
same,IC50,"HCT-116 CRC cells; Homo sapiens, HCT-116, 48 h",2200 ± 300 nM
same,IC50,"HCT-116 CRC cells; Homo sapiens, HCT-116, 72 h",1000 ± 200 nM
same,anti-tumoral activity versus MSA and NSAIDs as single agents or combined,[3],higher anti-tumoral activity
same,viability at 5 µM,H1299 (lung carcinoma); [8],48.7 ± 5%
same,viability at 25 µM,H1299 (lung carcinoma); [8],41.6 ± 7.2%
same,viability at 50 µM,H1299 (lung carcinoma); [8],31.4 ± 7.7%
same,apoptotic cell population,HT-29 cells [4],time dependent increase
same,expression level of p21,p21,sharp increase
same,expression level of Cyclin E1,Cyclin E1,went down substantially
same,live cells,HT-29 cells [5],< 76%
same,expression level of Cyclin B1,Cyclin B1,went down substantially
same,increase on cytotoxic potency compared with parent NSAID scaffolds,HT-29 (CRC),three-fold
same,TGI,"HT-29 (CRC); HT-29, 24 h",500 ± 300 nM
same,TGI,"HT-29 (CRC); HT-29, 48 h",200 ± 100 nM
same,TGI,"HT-29 (CRC); HT-29, 72 h",700 ± 300 nM
same,GI50,"HT-29 (CRC); Homo sapiens, HT-29, 24 h",100 ± 100 nM
same,IC50,"HT-29 (CRC); Homo sapiens, HT-29, 24 h",1900 ± 600 nM
same,CC50,"HT-29 (CRC); Homo sapiens, HT-29, 24 h",1700 ± 1600 nM
same,GI50,"HT-29 (CRC); Homo sapiens, HT-29, 48 h",100 ± 100 nM
same,IC50,"HT-29 (CRC); Homo sapiens, HT-29, 48 h",1200 ± 100 nM
same,CC50,"HT-29 (CRC); Homo sapiens, HT-29, 48 h",700 ± 100 nM
same,viability at 5 µM,HT-29 (CRC); [9],20.8 ± 5.6%
same,viability at 25 µM,HT-29 (CRC); [9],18.5 ± 4.1%
same,viability at 50 µM,HT-29 (CRC); [9],17.7 ± 12.6%
same,GI50,"HT-29 (CRC); Homo sapiens, HT-29, 72 h",200 ± 100 nM
same,IC50,"HT-29 (CRC); Homo sapiens, HT-29, 72 h",1200 ± 400 nM
same,CC50,"HT-29 (CRC); Homo sapiens, HT-29, 72 h",2500 ± 1400 nM
same,cytotoxicity at 5 µM,"HT-29 (CRC); Homo sapiens, HT-29, read-out: inhibition in cell viability",75 to 80%
